Assays:
Assay in all cases: Competitive isoTOP-ABPP, cell lysates
Assay type in all cases: binding
[1] = biological target: T1, DDX59 C414 (Q5T1V6) (Homo sapiens, UniProt Q5T1V6); settings: for isoTOP-ABPP reactivity ratio, Q5T1V6_C414: 500 μm; for R value (DMSO/fragment): 500 μM
T1 sequence (Q5T1V6 1-619): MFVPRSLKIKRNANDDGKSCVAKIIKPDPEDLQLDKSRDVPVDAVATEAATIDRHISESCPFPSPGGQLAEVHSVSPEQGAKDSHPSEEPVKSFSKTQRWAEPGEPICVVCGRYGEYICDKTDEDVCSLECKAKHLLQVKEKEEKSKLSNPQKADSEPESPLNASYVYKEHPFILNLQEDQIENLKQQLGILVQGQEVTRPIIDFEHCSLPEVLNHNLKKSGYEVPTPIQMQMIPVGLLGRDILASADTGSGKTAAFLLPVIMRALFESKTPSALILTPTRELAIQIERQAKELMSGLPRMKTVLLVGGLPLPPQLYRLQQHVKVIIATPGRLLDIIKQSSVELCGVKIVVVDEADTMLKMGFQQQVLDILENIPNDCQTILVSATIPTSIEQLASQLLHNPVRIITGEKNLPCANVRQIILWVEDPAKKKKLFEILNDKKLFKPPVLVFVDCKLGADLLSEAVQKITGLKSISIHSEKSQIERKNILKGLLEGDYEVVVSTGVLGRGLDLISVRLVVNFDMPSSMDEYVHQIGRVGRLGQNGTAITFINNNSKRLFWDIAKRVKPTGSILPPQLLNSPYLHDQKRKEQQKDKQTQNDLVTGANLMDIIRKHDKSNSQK

[2] = biological target: T2, IREB2 C137 (P48200) (Homo sapiens, UniProt P48200); settings: for isoTOP-ABPP reactivity ratio, P48200_C137: 500 μm
T2 sequence (P48200 1-963): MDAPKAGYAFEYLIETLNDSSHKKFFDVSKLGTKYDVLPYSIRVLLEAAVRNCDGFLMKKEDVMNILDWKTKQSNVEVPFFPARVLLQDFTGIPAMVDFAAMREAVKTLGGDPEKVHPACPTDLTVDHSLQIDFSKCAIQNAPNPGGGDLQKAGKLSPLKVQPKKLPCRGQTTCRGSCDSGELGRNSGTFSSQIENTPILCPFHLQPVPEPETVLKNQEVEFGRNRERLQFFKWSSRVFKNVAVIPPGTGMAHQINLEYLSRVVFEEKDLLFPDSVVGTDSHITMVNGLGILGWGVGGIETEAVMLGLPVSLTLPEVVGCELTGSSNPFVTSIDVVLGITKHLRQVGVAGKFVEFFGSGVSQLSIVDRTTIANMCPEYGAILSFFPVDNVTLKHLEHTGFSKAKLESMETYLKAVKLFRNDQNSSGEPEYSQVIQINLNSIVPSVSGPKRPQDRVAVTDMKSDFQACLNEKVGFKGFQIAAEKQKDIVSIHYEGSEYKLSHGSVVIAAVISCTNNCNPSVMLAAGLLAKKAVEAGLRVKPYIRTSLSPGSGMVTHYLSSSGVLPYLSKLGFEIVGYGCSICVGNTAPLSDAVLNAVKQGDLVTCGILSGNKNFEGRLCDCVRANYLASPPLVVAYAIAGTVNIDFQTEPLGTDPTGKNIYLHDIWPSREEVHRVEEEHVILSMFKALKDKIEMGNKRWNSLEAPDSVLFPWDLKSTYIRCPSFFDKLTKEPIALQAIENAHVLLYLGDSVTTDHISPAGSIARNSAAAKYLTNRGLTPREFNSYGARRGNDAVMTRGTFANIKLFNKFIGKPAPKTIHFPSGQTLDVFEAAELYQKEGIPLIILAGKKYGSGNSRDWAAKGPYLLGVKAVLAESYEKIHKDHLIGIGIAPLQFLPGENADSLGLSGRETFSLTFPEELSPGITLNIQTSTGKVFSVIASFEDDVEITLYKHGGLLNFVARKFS

[3] = biological target: LRBA C1704 (P50851) (Homo sapiens, UniProt P50851)
[4] = biological target: T3, MGMT C145 (P16455) (Homo sapiens, UniProt P16455); settings: for isoTOP-ABPP ratio (reactivity profile), P16455_C145: 500 μm in-vitro ramos
T3 sequence (P16455 1-207): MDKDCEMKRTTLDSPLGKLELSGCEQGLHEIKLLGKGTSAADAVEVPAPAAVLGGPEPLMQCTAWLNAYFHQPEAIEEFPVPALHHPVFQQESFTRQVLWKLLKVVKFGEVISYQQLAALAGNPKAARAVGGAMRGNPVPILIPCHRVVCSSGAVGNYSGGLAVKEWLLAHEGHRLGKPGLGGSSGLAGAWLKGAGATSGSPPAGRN

LRBA C1704 (P50851), sequence (P50851 whole entry): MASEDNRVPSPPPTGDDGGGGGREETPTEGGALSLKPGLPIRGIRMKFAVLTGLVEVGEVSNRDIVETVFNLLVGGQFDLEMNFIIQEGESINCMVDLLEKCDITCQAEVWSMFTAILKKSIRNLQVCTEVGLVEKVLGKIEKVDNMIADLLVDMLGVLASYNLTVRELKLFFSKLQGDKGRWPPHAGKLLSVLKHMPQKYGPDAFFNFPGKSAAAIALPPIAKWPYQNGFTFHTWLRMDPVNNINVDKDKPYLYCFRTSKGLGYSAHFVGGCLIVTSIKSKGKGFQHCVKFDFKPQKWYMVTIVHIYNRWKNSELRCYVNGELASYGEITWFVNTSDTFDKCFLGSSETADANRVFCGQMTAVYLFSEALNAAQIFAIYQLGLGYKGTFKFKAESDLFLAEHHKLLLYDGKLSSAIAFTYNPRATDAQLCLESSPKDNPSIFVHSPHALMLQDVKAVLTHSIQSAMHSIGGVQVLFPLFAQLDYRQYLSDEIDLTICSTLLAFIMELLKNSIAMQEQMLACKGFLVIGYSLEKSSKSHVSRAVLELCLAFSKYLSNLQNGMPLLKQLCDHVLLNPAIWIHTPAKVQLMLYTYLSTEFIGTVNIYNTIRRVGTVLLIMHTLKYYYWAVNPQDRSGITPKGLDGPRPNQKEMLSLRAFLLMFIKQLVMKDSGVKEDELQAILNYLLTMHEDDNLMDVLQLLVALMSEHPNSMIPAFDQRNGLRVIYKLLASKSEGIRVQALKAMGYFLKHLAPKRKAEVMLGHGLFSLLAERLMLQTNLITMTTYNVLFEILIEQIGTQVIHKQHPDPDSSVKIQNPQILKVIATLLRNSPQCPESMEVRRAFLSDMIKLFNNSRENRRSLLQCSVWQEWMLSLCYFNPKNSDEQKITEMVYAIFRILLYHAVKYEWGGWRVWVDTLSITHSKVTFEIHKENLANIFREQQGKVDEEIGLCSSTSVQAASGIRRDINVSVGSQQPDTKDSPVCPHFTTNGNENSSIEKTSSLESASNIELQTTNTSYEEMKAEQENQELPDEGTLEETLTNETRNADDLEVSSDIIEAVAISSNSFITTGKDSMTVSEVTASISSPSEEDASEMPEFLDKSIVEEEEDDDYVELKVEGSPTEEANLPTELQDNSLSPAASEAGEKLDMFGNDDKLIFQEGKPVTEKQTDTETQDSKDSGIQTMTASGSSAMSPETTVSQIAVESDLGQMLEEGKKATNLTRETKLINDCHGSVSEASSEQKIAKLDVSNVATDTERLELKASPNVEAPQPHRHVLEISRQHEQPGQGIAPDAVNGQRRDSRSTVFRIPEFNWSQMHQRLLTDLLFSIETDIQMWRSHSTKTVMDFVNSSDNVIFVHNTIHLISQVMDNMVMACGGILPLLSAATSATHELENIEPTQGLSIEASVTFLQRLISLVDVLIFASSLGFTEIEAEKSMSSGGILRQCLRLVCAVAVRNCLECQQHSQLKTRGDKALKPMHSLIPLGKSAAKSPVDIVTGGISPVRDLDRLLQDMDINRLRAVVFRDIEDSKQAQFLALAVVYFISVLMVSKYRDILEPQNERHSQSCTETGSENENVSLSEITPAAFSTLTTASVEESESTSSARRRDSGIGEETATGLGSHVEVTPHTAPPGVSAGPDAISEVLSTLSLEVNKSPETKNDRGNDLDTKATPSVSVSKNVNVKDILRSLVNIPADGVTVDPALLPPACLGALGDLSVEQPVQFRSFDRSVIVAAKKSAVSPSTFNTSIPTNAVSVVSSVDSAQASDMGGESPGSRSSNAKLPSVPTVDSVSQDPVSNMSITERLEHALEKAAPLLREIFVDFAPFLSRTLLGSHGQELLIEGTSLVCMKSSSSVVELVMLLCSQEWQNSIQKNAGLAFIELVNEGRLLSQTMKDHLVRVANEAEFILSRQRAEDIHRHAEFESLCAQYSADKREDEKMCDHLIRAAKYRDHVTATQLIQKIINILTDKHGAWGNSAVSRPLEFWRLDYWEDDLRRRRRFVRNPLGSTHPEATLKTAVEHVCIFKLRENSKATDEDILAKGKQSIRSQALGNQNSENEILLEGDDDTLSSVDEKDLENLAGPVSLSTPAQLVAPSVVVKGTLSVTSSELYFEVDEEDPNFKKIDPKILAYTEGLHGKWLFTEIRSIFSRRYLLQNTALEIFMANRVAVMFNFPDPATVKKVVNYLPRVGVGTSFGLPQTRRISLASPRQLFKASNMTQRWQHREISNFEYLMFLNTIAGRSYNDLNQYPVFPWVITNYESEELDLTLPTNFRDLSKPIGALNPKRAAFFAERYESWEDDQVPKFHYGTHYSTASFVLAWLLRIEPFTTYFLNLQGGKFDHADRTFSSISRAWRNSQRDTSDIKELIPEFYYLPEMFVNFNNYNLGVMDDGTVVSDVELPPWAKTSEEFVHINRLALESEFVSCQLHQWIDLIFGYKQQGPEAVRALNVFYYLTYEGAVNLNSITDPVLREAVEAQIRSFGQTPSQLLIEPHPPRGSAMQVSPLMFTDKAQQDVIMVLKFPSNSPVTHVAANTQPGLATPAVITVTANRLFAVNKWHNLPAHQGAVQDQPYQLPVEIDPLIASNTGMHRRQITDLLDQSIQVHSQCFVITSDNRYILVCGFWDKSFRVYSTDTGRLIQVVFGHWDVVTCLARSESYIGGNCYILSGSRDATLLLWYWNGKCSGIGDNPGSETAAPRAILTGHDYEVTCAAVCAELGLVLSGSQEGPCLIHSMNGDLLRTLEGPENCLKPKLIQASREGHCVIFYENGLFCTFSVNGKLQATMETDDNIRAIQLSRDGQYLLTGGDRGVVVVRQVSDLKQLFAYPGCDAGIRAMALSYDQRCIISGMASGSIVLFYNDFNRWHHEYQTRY

Compound: C=CC(=O)N(Cc1cccnc1)c1ccc(Oc2ccccc2)c(C(F)(F)F)c1 [compound 15]
- isoTOP-ABPP ratio (reactivity profile), Q5T1V6_C414 ([1]; 500 μm in-vitro ramos): 1.0
- isoTOP-ABPP ratio (reactivity profile), P48200_C137 ([2]; 500 μm in-vitro ramos): 2.0
- isoTOP-ABPP ratio (reactivity profile), P50851_C1704 ([3]; 500 μm in-vitro ramos): 1.9
- isoTOP-ABPP ratio (reactivity profile), P16455_C145 [4]: 1.3

Compound: CC(C)CCOCCNC(=O)CCl [compound 27]
- isoTOP-ABPP ratio (reactivity profile), Q5T1V6_C414 ([1]; 500 μm in-vitro ramos): 1.0
- isoTOP-ABPP ratio (reactivity profile), Q5T1V6_C414 ([1]; 500 μm in-vitro ramos_231): 0.8
- isoTOP-ABPP ratio (reactivity profile), P48200_C137 ([2]; 500 μm in-vitro ramos_231): 1.4
- isoTOP-ABPP ratio (reactivity profile), P50851_C1704 ([3]; 500 μm in-vitro ramos_231): 1.1
- isoTOP-ABPP ratio (reactivity profile), P16455_C145 [4]: 20.0

Compound: C=CC(=O)N1CCC(c2noc3ccc(F)cc23)CC1 [compound 37]
- isoTOP-ABPP reactivity ratio, Q5T1V6_C414 ([1]; in-vitro_ramos): 1.0
- isoTOP-ABPP reactivity ratio, P48200_C137 ([2]; in-vitro_ramos): 0.9
- isoTOP-ABPP reactivity ratio, P50851_C1704 ([3]; 500 μm, in-vitro_ramos): 1.0

Compound: COc1ccc(C2CC(c3cccs3)=NN2C(=O)CCl)cc1 (stereo not shown) [compound 4]
- R value (DMSO/fragment) ([3]; 250 μM, in vitro, Ramos): 1.5
- R value (DMSO/fragment) ([4]; 250 μM, in vitro, Ramos): 20.0

Compound: O=C(CCl)Nc1cccc2ncccc12 [compound 51]
- isoTOP-ABPP reactivity profile ratio, P50851_C1704 ([3]; 500 μm, in-vitro_ramos): 1.1
- isoTOP-ABPP reactivity profile ratio, P16455_C145 ([4]; 500 μm, in-vitro_ramos): 20.0

Compound: COc1ccccc1OCCNC(=O)CCl [compound 28]
- isoTOP-ABPP ratio (reactivity profile), P16455_C145 [4]: 20.0

Compound: O=C(CCl)N1CCN(S(=O)(=O)c2ccccc2F)CC1 [compound 10]
- isoTOP-ABPP ratio, P48200_C137 ([2]; 500 μM, invitro, ramos): 2.1
- isoTOP-ABPP ratio, P50851_C1704 ([3]; 500 μM, invitro, ramos): 0.8

Compound: O=C(CCl)Nc1ccccc1C1CCCCCC1 [compound 35]
- isoTOP-ABPP reactivity ratio, Q5T1V6_C414 ([1]; in-vitro_ramos): 1.3
- isoTOP-ABPP reactivity ratio, P48200_C137 ([2]; in-vitro_ramos): 1.1
- isoTOP-ABPP reactivity ratio, P50851_C1704 ([3]; 500 μm, in-vitro_ramos): 1.1

Compound: Cc1ccc(C=C(C#N)C(=O)NCCN2CCOCC2)cc1 [compound 41]
- isoTOP-ABPP reactivity ratio, Q5T1V6_C414 ([1]; in-vitro_ramos): 1.0
- isoTOP-ABPP reactivity ratio, Q5T1V6_C414 ([1]; in-vitro_ramos_231): 1.2
- isoTOP-ABPP reactivity ratio, P48200_C137 ([2]; in-vitro_ramos_231): 1.2
- isoTOP-ABPP reactivity ratio, P16455_C145 ([4]; 500 μm, in-vitro_ramos_231): 1.9

Compound: O=C(CCl)N(Cc1ccc(F)cc1)C12CC3CC(CC(C3)C1)C2 [compound 34]
- isoTOP-ABPP reactivity ratio, Q5T1V6_C414 ([1]; in-vitro_ramos_231): 0.6

Compound: CC(C)(C)c1cc(NC(=O)CCl)on1 [compound 32]
- isoTOP-ABPP reactivity ratio, P50851_C1704 ([3]; 500 μm, in-vitro_ramos): 2.0
- isoTOP-ABPP reactivity ratio, P16455_C145 ([4]; 500 μm, in-vitro_ramos): 20.0

Compound: C=CC(=O)N(c1ccccc1)c1ccc(Br)cc1 [compound 5]
- isoTOP-ABPP ratio, P50851_C1704 ([3]; 500 μM, invitro, ramos): 3.6
- isoTOP-ABPP ratio, P16455_C145 ([4]; 500 μM, invitro, ramos): 2.0

Compound: O=C(CCl)Nc1cc(C(F)(F)F)cc(C(F)(F)F)c1 [compound 3]
- R value (DMSO/fragment) ([1]; invitro, ramos): 6.0
- R value (DMSO/fragment) ([3]; 500 μM, invitro, ramos): 3.6
- R value (DMSO/fragment) ([4]; 500 μM, invitro, ramos): 20.0

Compound: COc1ccc2c(c1)CCCN2C(=O)CCl [compound 2]
- R value (DMSO/fragment) ([1]; in vitro, MDA-MB-231): 20.0
- R value (DMSO/fragment) ([1]; invitro, ramos): 20.0
- R value (DMSO/fragment) ([2]; 500 μM, invitro, ramos): 10.5
- R value (DMSO/fragment) ([3]; 500 μM, invitro, ramos): 3.4
- R value (DMSO/fragment) ([4]; 500 μM, invitro, ramos): 20.0

Compound: N#C/C(=C\c1cc(C(F)(F)F)cc(C(F)(F)F)c1)C(N)=O [compound 23]
- isoTOP-ABPP ratio (reactivity profile), Q5T1V6_C414 ([1]; 500 μm in-vitro ramos): 1.4
- isoTOP-ABPP ratio (reactivity profile), P48200_C137 ([2]; 500 μm in-vitro ramos): 1.6
- isoTOP-ABPP ratio (reactivity profile), P50851_C1704 ([3]; 500 μm in-vitro ramos): 3.4
- isoTOP-ABPP ratio (reactivity profile), P16455_C145 [4]: 1.0

From patent publication US10670605B2, “Cysteine reactive probes and uses thereof” (The Scripps Research Institute, priority 2015, dated 2020)
